Measurements taken from article PMC10628300, “Dual function of OmpM as outer membrane tether and nutrient uptake channel in diderm Firmicutes” (Nature Communications, 2023).

Key:
[1] = target: T1, FNLLGLLA_00518 β-barrel (OmpA-like) (Veillonella parvula, UniProt A0AB38YQ02); experiment: proteoliposome swelling, decrease in A400; format: biochemical; conditions: diffusive transport through channel, no binding constant; much slower than VpOmpM1 and EcOmpF; 10 mM HEPES-NaOH pH 7.5, 12 mM stachyose inside
T1 construct: gene CYJ21_000020; beta-barrel region, residues 21-200 (from plasmid name pB22-00518_21-200); TamB signal peptide and N-terminal His7; expressed in E. coli C43(DE3) delta-cyoABCD; reconstituted in liposomes

[2] = target: VpOmpM1 stalk construct (residues 22-107) (Veillonella parvula); experiment: crystal structure; stalk construct 22-107 at ~20 mg/ml; 0.1 M citric acid pH 3.5, 2.0 M ammonium sulphate, 20 °C; three chains in the asymmetric unit
[3] = target: T2, EcOmpF (Escherichia coli, UniProt P02931); experiment: proteoliposome swelling, decrease in A400; format: biochemical; conditions: diffusive transport through general porin, no binding constant, 10 mM HEPES-NaOH pH 7.5, 12 mM stachyose inside
T2 construct: gene ompF; full-length, untagged (pBAD24-EcOmpF), expressed in E. coli BL21(DE3), purified from outer membranes; trimer; reconstituted in liposomes
T2 sequence (P02931 23-362): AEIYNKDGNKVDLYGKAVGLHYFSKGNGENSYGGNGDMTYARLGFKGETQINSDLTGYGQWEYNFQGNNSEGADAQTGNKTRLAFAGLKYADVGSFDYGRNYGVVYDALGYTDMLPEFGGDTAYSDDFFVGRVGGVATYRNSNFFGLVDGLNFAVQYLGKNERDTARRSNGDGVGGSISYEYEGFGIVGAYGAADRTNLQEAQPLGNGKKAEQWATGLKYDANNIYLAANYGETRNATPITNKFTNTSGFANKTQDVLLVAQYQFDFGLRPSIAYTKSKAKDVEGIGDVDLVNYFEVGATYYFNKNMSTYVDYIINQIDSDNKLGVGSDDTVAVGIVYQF

[4] = target: T3, VpOmpM1 (full-length) (Veillonella parvula, UniProt A0A100YN03); experiment: proteoliposome swelling, decrease in A400; format: biochemical; conditions: diffusive transport through general porin, no binding constant; 10 mM HEPES-NaOH pH 7.5, 12 mM stachyose inside; rates normalised to EcOmpF with arabinose
T3 construct: gene KHZ90_07665; full-length without native signal peptide; E. coli TamB signal peptide and N-terminal His7 added (pJW46); expressed in E. coli C43(DE3) delta-cyoABCD; homotrimer; reconstituted in liposomes

[5] = target: VpOmpM1 (OmpM1 from Veillonella parvula), full-length, expressed in E. coli (Veillonella parvula); experiment: cryo-EM structure; single particle; purified VpOmpM1 from E. coli (11.6 mg/ml) or V. parvula (8 mg/ml) in DM detergent, grids plunge-frozen at 4 °C; reconstructions without symmetry (C1) and with C3

Compound	proteoliposome swelling, decrease in A400 [1]	proteoliposome swelling, decrease in A400 [4]	also measured
NCC(=O)O [glycine]	could only transport putrescine and glycine at much slower rates than VpOmpM1 and EcOmpF	–	–
VpOmpM1 stalk construct (residues 22-107) (domain or fragment)	–	–	stoichiometry N [2]: 3
OC1OC[C@H](O)[C@H](O)[C@H]1O (some centres unmarked) [arabinose]	–	–	proteoliposome swelling, decrease in A400 ([3]; reference condition to which all rates are normalised): All data were normalized to EcOmpF-containing liposome swelling in the presence of arabinose
NCCCCN [putrescine]	could only transport putrescine and glycine at much slower rates than VpOmpM1 and EcOmpF	VpOmpM1 could transport lactate, which is essential for V. parvula growth, and putrescine	proteoliposome swelling, decrease in A400 ([3]; rates normalised to EcOmpF with arabinose): putrescine and glycine at much slower rates than VpOmpM1 and EcOmpF
C[C@H](O)C(=O)O [lactate]	–	VpOmpM1 could transport lactate, which is essential for V. parvula growth, and putrescine	–
VpOmpM1 (OmpM1 from Veillonella parvula), full-length, expressed in E. coli (natural protein)	–	–	stoichiometry N [5]: 3
